According to US20140303163A1, “USE OF KINASE INHIBITORS IN PREVENTING AND TREATING INFLAMMATORY DISORDER” (priority 2011, published 2014):
Entries after “also recorded” stand apart in the source; their conditions may differ.

How the values were obtained:
[1] = biological target: CDK2 (Homo sapiens, UniProt P24941); assay: Kinase assay CDK2; conditions: read-out: Target biochemical activity IC50, CDK2
[2] = biological target: CDK7 (Homo sapiens, UniProt P50613); assay: Kinase assay CDK7; conditions: read-out: Target biochemical activity IC50, CDK7
Chain of CDK7 (P50613 whole entry, species assumed): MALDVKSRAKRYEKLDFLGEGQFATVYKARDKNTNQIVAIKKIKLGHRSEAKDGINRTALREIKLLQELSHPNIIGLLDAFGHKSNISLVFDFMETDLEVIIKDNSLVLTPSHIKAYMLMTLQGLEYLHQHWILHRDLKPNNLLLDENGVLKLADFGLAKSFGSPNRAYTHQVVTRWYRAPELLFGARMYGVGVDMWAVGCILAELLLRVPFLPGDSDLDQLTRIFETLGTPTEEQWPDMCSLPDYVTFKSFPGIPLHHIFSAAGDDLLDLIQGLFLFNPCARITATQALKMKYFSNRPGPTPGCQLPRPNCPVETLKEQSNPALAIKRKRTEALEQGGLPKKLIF
Chain of CDK7 (P51946 whole entry partner, species assumed): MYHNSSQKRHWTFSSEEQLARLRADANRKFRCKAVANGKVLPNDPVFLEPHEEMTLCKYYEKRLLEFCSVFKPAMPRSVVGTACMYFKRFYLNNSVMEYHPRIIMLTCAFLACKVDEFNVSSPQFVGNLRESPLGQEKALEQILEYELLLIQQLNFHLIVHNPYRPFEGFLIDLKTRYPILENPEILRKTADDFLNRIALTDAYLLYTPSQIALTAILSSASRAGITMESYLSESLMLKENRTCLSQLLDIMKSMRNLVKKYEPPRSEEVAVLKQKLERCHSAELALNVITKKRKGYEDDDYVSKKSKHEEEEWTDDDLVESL
Chain of CDK7 (P51948 whole entry partner, species assumed): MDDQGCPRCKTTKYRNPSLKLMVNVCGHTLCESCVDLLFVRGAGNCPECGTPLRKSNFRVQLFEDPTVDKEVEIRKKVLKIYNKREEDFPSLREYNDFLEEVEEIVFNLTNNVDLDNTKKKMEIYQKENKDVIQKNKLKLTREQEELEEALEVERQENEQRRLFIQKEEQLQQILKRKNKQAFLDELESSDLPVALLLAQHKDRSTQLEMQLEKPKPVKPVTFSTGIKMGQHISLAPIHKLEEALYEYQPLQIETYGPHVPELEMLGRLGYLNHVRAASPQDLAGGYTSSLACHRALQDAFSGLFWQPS

[3] = biological target: Aurora B (Homo sapiens, UniProt Q96GD4); assay: Kinase assay Aurora B; conditions: read-out: Target biochemical activity IC50, Aurora B
Chain of Aurora B (Q96GD4 whole entry): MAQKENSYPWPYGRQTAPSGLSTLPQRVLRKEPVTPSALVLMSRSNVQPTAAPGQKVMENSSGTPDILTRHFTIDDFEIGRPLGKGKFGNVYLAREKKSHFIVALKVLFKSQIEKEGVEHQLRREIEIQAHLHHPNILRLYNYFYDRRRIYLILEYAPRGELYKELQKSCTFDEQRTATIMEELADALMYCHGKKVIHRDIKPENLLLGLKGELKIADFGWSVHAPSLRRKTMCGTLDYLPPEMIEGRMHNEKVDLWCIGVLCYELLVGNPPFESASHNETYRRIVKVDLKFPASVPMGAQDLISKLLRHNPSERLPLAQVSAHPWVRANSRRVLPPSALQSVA

[4] = biological target: SRC (Homo sapiens, UniProt P12931); assay: Kinase assay SRC; conditions: read-out: Target biochemical activity IC50, SRC
Chain of SRC (P12931 whole entry, species assumed): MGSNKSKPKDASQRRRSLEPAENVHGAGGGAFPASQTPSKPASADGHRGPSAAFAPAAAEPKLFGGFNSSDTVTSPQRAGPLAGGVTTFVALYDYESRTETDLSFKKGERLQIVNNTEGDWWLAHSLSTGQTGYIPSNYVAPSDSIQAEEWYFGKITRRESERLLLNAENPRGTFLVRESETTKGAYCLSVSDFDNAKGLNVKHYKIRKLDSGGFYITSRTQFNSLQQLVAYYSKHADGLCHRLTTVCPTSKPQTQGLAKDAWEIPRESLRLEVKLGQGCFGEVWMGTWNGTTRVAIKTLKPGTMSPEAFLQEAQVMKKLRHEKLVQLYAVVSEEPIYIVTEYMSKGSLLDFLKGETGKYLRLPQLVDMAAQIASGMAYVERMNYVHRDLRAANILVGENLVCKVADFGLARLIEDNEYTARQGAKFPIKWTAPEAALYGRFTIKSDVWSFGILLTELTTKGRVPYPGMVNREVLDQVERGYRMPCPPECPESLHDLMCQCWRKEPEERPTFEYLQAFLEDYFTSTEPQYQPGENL

[5] = biological target: T1, TSSK1 (Homo sapiens, UniProt Q9BXA7); assay: Kinase assay TSSK1; conditions: read-out: Target biochemical activity IC50, TSSK1
T1 sequence (Q9BXA7 1-367): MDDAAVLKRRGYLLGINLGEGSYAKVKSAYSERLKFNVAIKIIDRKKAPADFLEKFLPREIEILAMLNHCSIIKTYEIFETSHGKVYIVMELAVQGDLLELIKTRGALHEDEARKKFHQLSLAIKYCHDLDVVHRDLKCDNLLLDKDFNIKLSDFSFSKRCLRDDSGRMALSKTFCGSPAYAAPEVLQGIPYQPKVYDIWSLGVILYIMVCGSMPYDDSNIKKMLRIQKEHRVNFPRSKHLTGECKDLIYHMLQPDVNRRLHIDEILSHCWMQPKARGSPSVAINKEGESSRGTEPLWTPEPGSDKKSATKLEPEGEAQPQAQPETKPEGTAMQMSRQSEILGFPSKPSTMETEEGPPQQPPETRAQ

[6] = test system: HeLa; assay: Cellular effect in mammalian cells, HeLa; assay type: cell-based; conditions: Homo sapiens
[7] = test system: MCF-7; assay: Cellular effect in mammalian cells, MCF-7; assay type: cell-based; conditions: Homo sapiens, MCF7
[8] = test system: Jurkat; assay: Cellular effect in mammalian cells, Jurkat; assay type: cell-based; conditions: Homo sapiens
[9] = test system: K562; assay: Cellular effect in mammalian cells, K562; assay type: cell-based; conditions: Homo sapiens
[10] = test system: HCT116; assay: Cellular effect in mammalian cells, HCT116; assay type: cell-based; conditions: Homo sapiens, HCT-116
[11] = test system: HT29; assay: Cellular effect in mammalian cells, HT29; assay type: cell-based; conditions: Homo sapiens, HT-29
[12] = test system: MRC-5; assay: Cellular effect in mammalian cells, MRC-5; assay type: cell-based; conditions: Homo sapiens, MRC5
[13] = test system: H460; assay: Cellular effect in mammalian cells, H460; assay type: cell-based; conditions: Homo sapiens, NCI-H460
[14] = test system: THP-1; assay: Cellular effect in mammalian cells, THP-1; assay type: cell-based; conditions: Homo sapiens
[15] = test system: HepG2; assay: Cellular effect in mammalian cells, HepG2; assay type: cell-based; conditions: Homo sapiens
[16] = test system: L02; assay: Cellular effect in mammalian cells, L02; assay type: cell-based; conditions: Homo sapiens
[17] = test system: MCF-7 cells; assay: Cell apoptosis assay (TUNEL, PARP Western blot); assay type: cell-based; conditions: 48 hours, TUNEL and PARP Western blot
Experimental: (§1) MCF-7 cells were treated with compound 18 (F200) and Roscovitine for 48 hours. Then the cells were analyzed by TUNEL assay and Western blot to detect apoptosis.
For TUNEL assay, cells were fixed and blocking in 6-well plate. DNA strand breaks were labeled by terminal deoxynucleotidyl transferase (TdT), which catalyzed polymerization of labeled nucleotides to free 3′-OH DNA ends in template-independent manner Fluorescein could be detected by anti-fluorescein antibody, conjugated with horse-radish-peroxidase (POD). After DAB reaction, stained cells were analyzed and counted under light microscope.
(§2) For Western blot, cells were harvested and lysed by lysis buffer. Western blot were performed with anti-PARP or anti-Pol[…] II antibody. During apoptosis, PARP is cleaved from a 113KD intact form into smaller 89KD and 24KD fragments.

[18] = test system: CDK9's activity on Pol II phosphorylation; assay: Western blot of Pol II phosphorylation; assay type: cell-based; conditions: MCF-7 cells, 48 hours
Experimental: as §1, §2

[19] = Preliminary toxicology study in mice (acute toxicity); assay type: in vivo; conditions: mouse, in vivo, po, p.o. (gavage), two weeks
Experimental: (§3) Preliminary toxicology study in mice: Mice were divided into four groups (n=10 in each), 500 mg/kg, 1,000 mg/kg or 2,000 mg/kg were administered respectively to three groups by gavage. Negative control is 0.5% CMC-Na. After two weeks, mice were sacrificed and tissue section of visceral organs were analyzed by Hematoxylin-Eosin staining

[20] = test system: mice; assay: as above; assay type: in vivo; conditions: p.o.
Experimental: as §3

[21] = PK profile: rat IV/PO study; assay type: in vivo; conditions: oral administration
[22] = test system: lung carcinoma (H460); assay: Tumor growth inhibition, H460 xenograft; assay type: in vivo, SCID-bg mice; conditions: 150 mg/kg, oral administration
Experimental: Animal: SCID-bg mice Tumor type: lung carcinoma (H460) Treatment: Single PO dose for 21 days (starting at day 7 following tumor inoculation) Endpoint: tumor volume and mean luciferase activity by Xenogen (Caliper) machine: SCID-bg mice were implanted with NCI-H460 cells at 5×10^6 cells/mouse on Day 0. Compound 18 treatment began on Day 7. […] In model group, the vehicle was used instead of compound 18. Tumor volume and mean luciferase activity by Xenogen technology were measured once per there days.

[23] = test system: rabbit neutrophils; assay: Induction of neutrophil apoptosis (Annexin-V and PI staining); assay type: cell-based
Experimental: • 1. Acquire 5-10 ml blood from adult rabbit • 2. Isolate neutrophils using RED BLOOD CELL LYSING BUFFER (SIGMA Cat No. R7757) and rabbit isolation kit (TBDsciences, Cat No. LZS11133) • 3. Treat neutrophils with reference compounds or SG45 for 15 h • 4. Apoptosis assay (Annexin-V and PI staining)
Harvest neutrophils by centrifugation at 1,000 rpm, 4° C. for 7 min Remove culture medium after centrifugation. Wash the cell pellet with pre-cooled PBS 200 l once. The re-suspend the cells with pre-cooled PBS 100 l. Incubate the cells with 2 l dye PI (BD Biosciences. Cat. No. 556463) and 2 l anti-Annexin V-PE (BD Biosciences. Cat. No. 556421) at room temperature under the darkness for 30 minutes. Remove the antibodies by centrifugation at 1,000 rpm, 4° C. for 2 min Resuspend the cells in 200 l pre-cooled PBS Finally, load the cell suspension to the FACS machine to acquire the staining results: […]

Row | Structure (SMILES) | IC50 [5] [µM] | IC50 [6] [µM] | IC50 [7] [µM] | IC50 [8] [µM] | IC50 [9] [µM] | IC50 [10] [µM] | IC50 [11] [µM] | IC50 [14] [µM] | IC50 [12] [µM] | IC50 [16] [µM] | other results
1 | CCn1cc(-c2ccnc(Nc3ccc(O)cc3)n2)c2ccnc(Cl)c21 [SG49, 4-(4-(7-Chloro-1-ethyl-1H-pyrrolo[2,3-c]pyridin-3-yl)pyrimidin-2-ylamino)phenol] |  | 2.69 | > 10 | 0.61 | 3.52 | 4.28 | 8.59 | 3.68 | 5.82 | 7.34 | IC50 [13]: 2.95 µM; IC50 [15]: 5.55 µM
2 | CCCn1cc(-c2ccnc(Nc3ccc(C)c(S(=O)(=O)N4CCOCC4)c3)n2)c2ccncc21 [SG52, N-(4-Methyl-3-(morpholinosulfonyl)phenyl)-4-(1-propyl-1H-pyrrolo[2,3-c]pyridin-3-yl)pyrimidin-2-amine] |  |  |  |  |  |  |  |  |  | 1.4 | 
3 | CCCn1cc(-c2ccnc(Nc3ccc(S(N)(=O)=O)cc3)n2)c2nc(Cl)cc(C)c21 [SG54, 4-(4-(5-Chloro-7-methyl-1-propyl-1H-pyrrolo[3,2-b]pyridin-3-yl)pyrimidin-2-ylamino)benzenesulfonamide] |  |  |  |  |  |  |  |  |  | 8.37 | 
4 | CCn1cc(-c2ccnc(Nc3cccc(S(N)(=O)=O)c3)n2)c2cccnc21 [Compound 18, 3-(4-(1-Ethyl-1H-pyrrolo[2,3-b]pyridin-3-yl)pyrimidin-2-ylamino)benzenesulfonamide] | > 10 |  |  |  |  |  | 0.59 | 5.3 |  | 4.3 | Induction of cell apoptosis [17]: induced apoptosis of cells; also recorded: induced cell apoptosis with dose-dependent manner; Inhibition of CDK9's activity on Pol II phosphorylation [18]: inhibited CDK9's activity on Pol II phosphorylation; LD50 at 2 weeks [19]: > 2000 mg/kg; MTD at 2 weeks [19]: > 500 mg/kg; Tolerability in animals [20]: excellent tolerability in animals; Oral availability (in words) [21]: good oral availability; Tumor growth inhibition (in words) [22]: able to inhibit tumor growth; Induction of neutrophil apoptosis compared with Roscovitine ([23]; 15 h, FIG. 5): stronger capability in inducing neutrophil apoptosis than Roscovitine; Apoptotic morphological changes of neutrophils ([23]; increasing dose (0.5, 2, 10 μM), FIG. 4): typical apoptotic morphological changes
5 | CCCn1cc(-c2ccnc(Nc3cccc(S(N)(=O)=O)c3)n2)c2nc(Cl)cc(C)c21 [SG53, 3-(4-(5-Chloro-7-methyl-1-propyl-1H-pyrrolo[3,2-b]pyridin-3-yl)pyrimidin-2-ylamino)benzenesulfonamide] |  |  |  |  |  | 3.56 | 0.25 |  |  |  | 

Continued, in another order:

Row | IC50 [5] [µM] | IC50 [6] [µM] | IC50 [7] [µM] | IC50 [8] [µM] | IC50 [9] [µM] | IC50 [10] [µM] | IC50 [11] [µM] | IC50 [14] [µM] | Structure (SMILES) | IC50 [12] [µM] | IC50 [16] [µM] | other results
6 | 0.52 | 0.23 | 0.45 | 0.4 | 0.61 | 0.28 | 1.16 |  | CCn1cc(-c2ccnc(Nc3cccc(S(N)(=O)=O)c3)n2)c2ccnc(Cl)c21 [SG50, 3-(4-(7-Chloro-1-ethyl-1H-pyrrolo[2,3-c]pyridin-3-yl)pyrimidin-2-ylamino)benzenesulfonamide] | 3.36 |  | IC50 [1]: 0.004 µM; IC50 [2]: > 10 µM; IC50 [3]: > 10 µM; IC50 [4]: > 10 µM
7 | 0.14 | 3.31 | 9.4 | 1.92 | 4.75 | 4.67 | 8.31 | > 10 | CCn1cc(-c2ccnc(Nc3cccc(O)c3)n2)c2ccnc(Cl)c21 [SG48, 3-(4-(7-Chloro-1-ethyl-1H-pyrrolo[2,3-c]pyridin-3-yl)pyrimidin-2-ylamino)phenol] | > 10 | 8.1 | IC50 [1]: 0.004 µM; IC50 [2]: 3.28 µM; IC50 [4]: > 10 µM; IC50 [13]: 4.66 µM; IC50 [15]: 6.1 µM
8 |  |  |  | 0.005 |  |  |  |  | CCCn1cc(-c2ccnc(Nc3cccc(S(N)(=O)=O)c3)n2)c2ccncc21 [SG51, 3-(4-(1-Propyl-1H-pyrrolo[2,3-c]pyridin-3-yl)pyrimidin-2-ylamino)benzenesulfonamide] |  |  | 
